# Test results reported in US20040043403A1, “Process for determining the biological activity of epidermal growth factor receptor tyrosine kinase inhibitors” (priority 2000, published 2004).
# Assays:
# [1] = system: WBC; experiment: Real time RT-PCR gene expression in White Blood Cells; type: cell-based, human; conditions: 3 μM, 24 h
# Method: The leucocyte-enriched fraction (buffy coat) is obtained from a healthy donor. 10 ml buffy coat, diluted with 25 ml RPMI 1640 medium is layered on 4 ml Ficoll-Paque (Pharmacia) and centrifuged at 1′200×g for 15 min. The White Blood Cell (WBC) layer at the interface is removed, the cells are washed 2 times with RPMI 1640 medium to remove platelets. WBCs are cultured in RPMI 1640 medium plus 10% Fetal Calf Serum (FCS) in T-150 flask, 100 million cells/100 ml and are incubated for 1 h at 37° C. before treatment. 20 million tissue culture cells (about 80% confluent) or 200 million WBCs are incubated for 2 or 24 h in culture medium containing 3 μM of an EGFR tyrosine kinase inhibitor or 0.03% DMSO. Total RNA from cell pellet is isolated using the RNeasy kit (Qiagen). mRNA is isolated using the oligotex mRNA purification kit (Qiagen). The quality of the obtained mRNA is tested by real time RT-PCR using beta-Actin primers (PE Applied Biosystems) with an amplicon size of 300 base pairs (bp). The total RNA is used as a reference to calculate the amount of mRNA-enrichment in the oligotex purified samples. The primers and probes are designed from mRNA sequences within the coding region or in the 3′ untranslated region (Table 2). For real time RT-PCR, RNA concentrations between 1 and 50 ng/reaction are used to obtain signals between 15-35 cycles. For each RNA preparation RT-PCR reactions are performed with and without reverse transcriptase to check for genomic DNA contamination. In all RNA samples tested, genomic DNA contamination is less than 1%. To normalize for variability in the initial concentration and quality of the total RNA, Glyceraldehyde-3-phosphate dehydrogenase (GAPDH) is used as an endogenous reference in all quantification experiments. For RT-PCR a one step, two-enzyme system is chosen. The TaqMan PCR Core Reagent Kit (PE #N808-0228) plus the reverse transcriptase MuLV (PE Biosystems # N808-0018) and RNase inhibitor (Roche Diagnostics # 799 025) are mixed as described in the manufacturers protocol. Triplicate measurements are done for target and for reference reactions. […] RT-PCR reactions are done with RNA concentrations of 2.5, 5, 10, 20, 40 and 80 ng per reaction. The absolute value of the slope of (log input amount) vs. ΔCT should be <0.1. The ΔCT value is determined by subtracting the average reference CT values from the average target CT values of the three measurements. Relative quantification is performed in triplicates, reference and target, using the RT-PCR protocol described above. […] Expression levels for the three genes, calculated relative to NCI-H520, show big differences between the various cell types (Table 5). […]
# [2] = system: A431 cells; experiment: Real time RT-PCR gene expression in A431 cells; type: cell-based, human
# Method: 20 million tissue culture cells (about 80% confluent) or 200 million WBCs are incubated for 2 or 24 h in culture medium containing 3 μM of an EGFR tyrosine kinase inhibitor or 0.03% DMSO. Total RNA from cell pellet is isolated using the RNeasy kit (Qiagen). mRNA is isolated using the oligotex mRNA purification kit (Qiagen). The quality of the obtained mRNA is tested by real time RT-PCR using beta-Actin primers (PE Applied Biosystems) with an amplicon size of 300 base pairs (bp). The total RNA is used as a reference to calculate the amount of mRNA-enrichment in the oligotex purified samples. 2 million A431 cells at about 80% confluency are treated with an EGFR tyrosine kinase inhibitor (100, 300 or 3000 nM) or 0.03% DMSO and incubated for 4, 8, 16 or 24 h. Total RNA is isolated using the RNeasy kit. The primers and probes are designed from mRNA sequences within the coding region or in the 3′ untranslated region (Table 2). For real time RT-PCR, RNA concentrations between 1 and 50 ng/reaction are used to obtain signals between 15-35 cycles. For each RNA preparation RT-PCR reactions are performed with and without reverse transcriptase to check for genomic DNA contamination. In all RNA samples tested, genomic DNA contamination is less than 1%. To normalize for variability in the initial concentration and quality of the total RNA, Glyceraldehyde-3-phosphate dehydrogenase (GAPDH) is used as an endogenous reference in all quantification experiments. For RT-PCR a one step, two-enzyme system is chosen. The TaqMan PCR Core Reagent Kit (PE #N808-0228) plus the reverse transcriptase MuLV (PE Biosystems # N808-0018) and RNase inhibitor (Roche Diagnostics # 799 025) are mixed as described in the manufacturers protocol. Triplicate measurements are done for target and for reference reactions. […] RT-PCR reactions are done with RNA concentrations of 2.5, 5, 10, 20, 40 and 80 ng per reaction. The absolute value of the slope of (log input amount) vs. ΔCT should be <0.1. The ΔCT value is determined by subtracting the average reference CT values from the average target CT values of the three measurements. Relative quantification is performed in triplicates, reference and target, using the RT-PCR protocol described above.
# [3] = WBC, relative to DMSO-treated NCI-H520 calibrator
# [4] = A431, 3 μM, 24 h, relative to DMSO-treated NCI-H520 calibrator
# [5] = A431 cells, 3 μM, 24 hours, Experiment 1
# [6] = A431 cells, 3 μM, 24 hours, Experiment 2
# [7] = A431 cells, 3 μM, 24 hours, Experiment 3
structure (smiles),measurement,setting,value
"C[C@@H](Nc1ncnc2[nH]c(-c3ccc(O)cc3)cc12)c1ccccc1 [COMPOUND A, (R)-6-(4-hydroxy-phenyl)-4-[(1-phenyl-ethyl)-amino]-7H-pyrrolo[2,3-d]pyrimidine]",Relative Clusterin expression,[1]; [3],2.03 n-fold
same,Relative TRAIL expression,[1]; [3],22.73 n-fold
same,Relative VAC-beta expression,[1]; [3],2.16 n-fold
same,TRAIL repression in WBCs,"[1]; WBCs, versus DMSO",2.5 fold
same,Relative Clusterin expression,[2]; [4],247.28 n-fold
same,Relative TRAIL expression,[2]; [4],99.50 n-fold
same,Relative VAC-beta expression,[2]; [4],57.20 n-fold
same,"Induction of clusterin gene expression, dose and time dependency (FIGS. 1A and 1B)","[2]; A431 cells, 100 nM, 300 nM and 3 μM, 4 to 24 h, real time RT-PCR",shows dose and time dependency
same,"Gene induction, Real time RT-PCR Experiment 1: Acute phase serum amyloid A protein",[2]; [5],6.6
same,"Gene induction, Real time RT-PCR Experiment 1: Cathepsin H",[2]; [5],5.2
same,"Gene induction, Real time RT-PCR Experiment 1: Caveolin",[2]; [5],2.8 ± 0.2
same,"Gene induction, Real time RT-PCR Experiment 1: Complement component 3 (C3)",[2]; [5],5.6
same,"Gene induction, Real time RT-PCR Experiment 1: Complement cytolysis inibitor (Clusterin)",[2]; [5],11.2 ± 2.0
same,"Gene induction, Real time RT-PCR Experiment 1: DNA binding protein inhibitor ID-3",[2]; [5],4.4
same,"Gene induction, Real time RT-PCR Experiment 1: Extracellular protein S1-5",[2]; [5],3.2 ± 1.7
same,"Gene induction, Real time RT-PCR Experiment 1: TGF-beta induced gene",[2]; [5],5.2
same,"Gene induction, Real time RT-PCR Experiment 1: TRAIL",[2]; [5],7.8 ± 1.6
same,"Gene induction, Real time RT-PCR Experiment 1: VAC-beta (annexin VIII)",[2]; [5],2.8 ± 1.5
same,"Gene induction, Real time RT-PCR Experiment 2: Acute phase serum amyloid A protein",[2]; [6],2.5 ± 1.1
same,"Gene induction, Real time RT-PCR Experiment 2: Cathepsin H",[2]; [6],2.6 ± 0.9
same,"Gene induction, Real time RT-PCR Experiment 2: Caveolin",[2]; [6],1.5 ± 0.4
same,"Gene induction, Real time RT-PCR Experiment 2: Complement component 3 (C3)",[2]; [6],2.5 ± 0.4
same,"Gene induction, Real time RT-PCR Experiment 2: Complement cytolysis inibitor (Clusterin)",[2]; [6],5.2 ± 1.4
same,"Gene induction, Real time RT-PCR Experiment 2: DNA binding protein inhibitor ID-3",[2]; [6],2.2 ± 0.1
same,"Gene induction, Real time RT-PCR Experiment 2: Extracellular protein S1-5",[2]; [6],1.7 ± 0.2
same,"Gene induction, Real time RT-PCR Experiment 2: TRAIL",[2]; [6],4.1 ± 1.4
same,"Gene induction, Real time RT-PCR Experiment 2: VAC-beta (annexin VIII)",[2]; [6],2.4 ± 0.9
same,"Gene induction, Real time RT-PCR Experiment 3: Acute phase serum amyloid A protein",[2]; [7],3.3
same,"Gene induction, Real time RT-PCR Experiment 3: Cathepsin H",[2]; [7],2.1
same,"Gene induction, Real time RT-PCR Experiment 3: Caveolin",[2]; [7],2.6
same,"Gene induction, Real time RT-PCR Experiment 3: Complement component 3 (C3)",[2]; [7],2.0
same,"Gene induction, Real time RT-PCR Experiment 3: Complement cytolysis inibitor (Clusterin)",[2]; [7],6.2
same,"Gene induction, Real time RT-PCR Experiment 3: DNA binding protein inhibitor ID-3",[2]; [7],2.4
same,"Gene induction, Real time RT-PCR Experiment 3: Extracellular protein S1-5",[2]; [7],1.2 ± 0.5
same,"Gene induction, Real time RT-PCR Experiment 3: TRAIL",[2]; [7],5.7 ± 0.03
same,"Gene induction, Real time RT-PCR Experiment 3: VAC-beta (annexin VIII)",[2]; [7],2.5 ± 0.8
